{"source": "ChEMBL document CHEMBL5096161", "about": "“Medulloblastoma drugs in development: Current leads, trials and drawbacks” (Eur J Med Chem, 2021)", "key": {"D283 Med": {"test_system": "D283 Med", "test": "Anticancer activity against human D283 Med cells assessed as reduction in cell viability incubated for 72 hrs", "type": "functional, cell-based"}, "[1]": {"test": "Anticancer activity against human MED-MEB-8A cells assessed as reduction in cell viability incubated for 72 hrs", "type": "functional, cell-based"}, "[2]": {"test": "Antitumor activity against human D384 Med cells assessed as reduction in cell viability incubated for 24 hrs by Alamar blue assay", "type": "functional, cell-based"}, "[3]": {"test": "Antitumor activity against human D341 Med cells assessed as reduction in cell viability incubated for 24 hrs by Alamar blue assay", "type": "functional, cell-based"}, "[4]": {"test": "Antitumor activity against human D425 Med cells assessed as reduction in cell viability incubated for 24 hrs by Alamar blue assay", "type": "functional, cell-based"}, "[5]": {"target": "Vascular endothelial growth factor receptor 2 (Homo sapiens, UniProt P35968)", "sequence (P35968 whole entry, the tested form may be a part)": "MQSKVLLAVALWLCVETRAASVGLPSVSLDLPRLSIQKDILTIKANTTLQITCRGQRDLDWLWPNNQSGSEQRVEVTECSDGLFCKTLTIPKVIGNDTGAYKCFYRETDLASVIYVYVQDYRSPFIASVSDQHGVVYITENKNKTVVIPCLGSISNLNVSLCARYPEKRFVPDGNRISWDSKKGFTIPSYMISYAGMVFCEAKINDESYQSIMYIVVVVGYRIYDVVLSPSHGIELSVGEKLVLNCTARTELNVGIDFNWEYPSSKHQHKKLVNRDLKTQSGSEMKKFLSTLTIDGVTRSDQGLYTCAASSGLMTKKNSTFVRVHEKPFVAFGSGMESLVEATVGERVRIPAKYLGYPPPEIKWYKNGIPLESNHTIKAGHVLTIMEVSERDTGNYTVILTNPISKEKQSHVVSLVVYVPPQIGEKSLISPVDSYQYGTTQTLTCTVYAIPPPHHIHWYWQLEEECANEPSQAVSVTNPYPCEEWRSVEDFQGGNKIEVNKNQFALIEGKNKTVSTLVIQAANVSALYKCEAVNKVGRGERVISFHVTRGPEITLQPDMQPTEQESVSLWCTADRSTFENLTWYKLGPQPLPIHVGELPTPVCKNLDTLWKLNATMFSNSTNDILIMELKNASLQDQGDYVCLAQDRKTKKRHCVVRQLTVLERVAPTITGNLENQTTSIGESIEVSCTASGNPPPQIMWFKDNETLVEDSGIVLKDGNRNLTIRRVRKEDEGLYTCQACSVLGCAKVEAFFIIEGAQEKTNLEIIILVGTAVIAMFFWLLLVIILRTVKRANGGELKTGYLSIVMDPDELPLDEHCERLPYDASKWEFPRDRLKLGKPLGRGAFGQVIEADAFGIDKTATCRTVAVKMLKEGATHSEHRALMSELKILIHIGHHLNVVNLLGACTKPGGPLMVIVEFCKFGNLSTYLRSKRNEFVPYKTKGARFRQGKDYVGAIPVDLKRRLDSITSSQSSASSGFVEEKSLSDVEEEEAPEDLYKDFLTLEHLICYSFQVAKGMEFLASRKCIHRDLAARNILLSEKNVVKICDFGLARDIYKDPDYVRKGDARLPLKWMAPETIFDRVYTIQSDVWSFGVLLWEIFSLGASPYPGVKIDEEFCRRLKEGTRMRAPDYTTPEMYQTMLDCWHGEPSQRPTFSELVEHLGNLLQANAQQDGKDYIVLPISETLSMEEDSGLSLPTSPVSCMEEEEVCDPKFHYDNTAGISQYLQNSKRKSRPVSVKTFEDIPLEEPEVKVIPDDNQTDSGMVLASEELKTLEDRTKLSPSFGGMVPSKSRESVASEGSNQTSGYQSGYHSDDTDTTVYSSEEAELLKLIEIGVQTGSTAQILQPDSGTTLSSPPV", "test": "Inhibition of human VEGFR2 (789 to 1356 residues) assessed as reduction in autophosphorylation at Y1175 residues using poly (Glu4Tyr1) peptide and ATP as substrate incubated for 60 mins by ADP-Glo Kinase Assay"}, "Mus musculus": {"test_system": "Mus musculus", "test": "Antitumor activity in Ptch+/- p53-/- mutant mouse medulloblastoma allograft model assessed as increase in survival rate at 50 mg/kg, po QD relative to control (Rvb=75 days)", "type": "functional"}}}
{"smiles": "C[C@H]1O[C@@H](O[C@H]2[C@@H](O)C[C@H](O[C@H]3[C@@H](O)C[C@H](O[C@H]4CC[C@@]5(C)[C@H](CC[C@@H]6[C@@H]5C[C@@H](O)[C@]5(C)[C@@H](C7=CC(=O)OC7)CC[C@]65O)C4)O[C@@H]3C)O[C@@H]2C)C[C@H](O)[C@@H]1O", "note": "[DIGOXIN]", "values": [{"measurement": "IC50", "setting": "D283 Med", "value": 0.01, "unit": "µM"}, {"measurement": "IC50", "setting": "[1]", "value": 0.106, "unit": "µM"}]}
{"smiles": "CCCCCCCCc1ccc(CCC(N)(CO)CO)cc1", "note": "[FINGOLIMOD]", "values": [{"measurement": "IC50", "setting": "[2]", "value": 7.3, "unit": "µM"}, {"measurement": "IC50", "setting": "[3]", "value": 5.5, "unit": "µM"}, {"measurement": "IC50", "setting": "[4]", "value": 7.5, "unit": "µM"}]}
{"smiles": "COC(=O)Nc1nc2cc(C(=O)c3ccccc3)ccc2[nH]1", "note": "[MEBENDAZOLE]", "values": [{"measurement": "IC50", "setting": "[5]", "value": 4.3, "unit": "µM"}, {"measurement": "MST", "setting": "Mus musculus", "value": 113, "unit": "days"}]}
